# According to US4866046A, “Low-dosage sublingual aspirin” (Top Laboratories, Inc., priority 1988, dated 1989):
# Tests used:
# Platelet Aggregation [1] = assay: Platelet aggregation inhibition in volunteers, thrombin as aggregating agent; format: in vivo, human; details: daily dose, average (range)
# Description: Platelet aggregation was measured against thrombin as aggregating agent. Tablets were all similarly made as described in Example 1.
# Cyclooxygenase = Cyclooxygenase inhibition in volunteers after daily aspirin tablets; format: in vivo, human
# Platelet Aggregation [2] = details: dose of 325 mg/day, in some people; cited from earlier work
smiles,measurement,setting,value
"CC(=O)Oc1ccccc1C(=O)O [Aspirin, acetylsalicylic acid]","% Inhibition, after 5-7 days, of Platelet Aggregation","Platelet Aggregation [1]; 10 mg. tablet, swallowed",27.5 (0-87) %
same,"% Inhibition, after 5-7 days, of Platelet Aggregation",Platelet Aggregation [1]; 20 mg. sublingual tablet,45.3 (35-60) %
same,"% Inhibition, after 5-7 days, of Platelet Aggregation",Platelet Aggregation [1]; 80 mg. sublingual tablet (tablet of Example 1),95.7 (88-100) %
same,"% Inhibition, after 5-7 days, of Platelet Aggregation","Platelet Aggregation [1]; 80 mg. tablet, swallowed",44.2 (5-98) %
same,"% Inhibition, after 5-7 days, of Platelet Aggregation",Platelet Aggregation [1]; 325 mg. sublingual tablet,78.5 (62-98) %
same,inhibition at 325 mg,"Platelet Aggregation [1]; Homo sapiens, Platelet, 325 mg tablet, swallowed, read-out: % Inhibition, after 5-7 days, of Platelet Aggregation",70%
same,"% Inhibition, after 5-7 days, of Cyclooxygenase","Cyclooxygenase; 10 mg. tablet, swallowed, average (range) of volunteers",55.6 (11-95) %
same,"% Inhibition, after 5-7 days, of Cyclooxygenase","Cyclooxygenase; 20 mg. sublingual tablet, average (range)",83.3 (75-94) %
same,"% Inhibition, after 5-7 days, of Cyclooxygenase","Cyclooxygenase; 80 mg. sublingual tablet (tablet of Example 1), average (range)",99.0 (95-100) %
same,"% Inhibition, after 5-7 days, of Cyclooxygenase","Cyclooxygenase; 80 mg. tablet, swallowed, average (range)",76.3 (13-100) %
same,"% Inhibition, after 5-7 days, of Cyclooxygenase","Cyclooxygenase; 325 mg tablet, swallowed, average (range)",97.7 (25-100) %
same,"% Inhibition, after 5-7 days, of Cyclooxygenase","Cyclooxygenase; 325 mg. sublingual tablet, average",100.0%
same,inhibit platelet aggregation,Platelet Aggregation [2],90%
